The subject of one test is IL-18. In words: IL-18 maturation in RPE cell lysates of wild-type mice (Western blot). The class given is in vivo. The conditions noted are these: WT mice, peptide intravitreous. On the procedure:
siRNAs formulated in siRNA buffer (20 mM KCL, 0.2 mM MgCl2 in HEPES buffer at pH 7.5; Dharmacon) or phosphate buffered saline (PBS; Sigma-Aldrich); the TLR4 antagonist Ultra Pure Rhodobacter sphaeroides LPS (LPS-RS, InvivoGen), a peptide inhibitor of MyD88 homodimerization IMG-2005 (IMGENEX), control inhibitor (IMGENEX), recombinant IL-18 (Medical & Biological Laboratories), neutralizing rat antibodies against mouse IL-1β (IMGENEX), neutralizing rat antibodies against mouse IL-18 (Medical & Biological Laboratories), isotype control IgGs (R&D Systems or eBioscience as appropriate), Caspase-1 inhibitor Z-WEHD-FMK (R&D Systems), Caspase control inhibitor Z-FA-FMK (R&D Systems), DPI (Enzo Life Sciences), Mito-TEMPO (Enzo Life Sciences), MitoQ and dTPP (both adsorbed to cyclodextrin and provided by M.P. Murphy, MRC Mitochondrial Biology Unit), and gp91ds-tat and scrambled gp91 ds-tat (both Anaspec), were dissolved in phosphate buffered saline (PBS; Sigma-Aldrich) or dimethyl sulfoxide (DMSO; Sigma-Aldrich), and injected into the vitreous humor in a total volume of 1 μL with a 33-gauge Exmire microsyringe (Ito Corporation). […] As a control, Luc siRNA-chol (17+2 nt) was used with identical dosages. […]
Background: Immunoblotting shows a protein as a band on a membrane.

Another test concerns RPE. The experiment in a line: AAV1-BEST1-Cre-induced RPE degeneration in Dicer1 f/f mice. The class given is in vivo. The conditions noted are these: peptide intravitreous. The procedure:
Subretinal injections (1 μL) in mice were performed using a Pico-Injector (PLI-100, Harvard Apparatus). In vivo transfection of plasmids coding for two different Alu sequences (pAlu) or empty control vector (pNull) (Bennett et al., 2008; Kaneko et al., 2011; Shaikh et al., 1997) was achieved using 10% Neuroporter (Genlantis). AAV1-BEST1-Cre (Alexander and Hauswirth, 2008) or AAV1-BEST1-GFP were injected at 1.0×10^11 pfu/mL and in vitro transcribed Alu RNA was injected at 0.3 mg/mL. […]

The target in the next test is T1, Caspase-1 (Homo sapiens, UniProt P29466).
T1 construct: Primary human RPE cells were isolated as previously described; endogenous in cells; host or cells: primary human RPE cells
T1 sequence (P29466 120-297 limits assumed): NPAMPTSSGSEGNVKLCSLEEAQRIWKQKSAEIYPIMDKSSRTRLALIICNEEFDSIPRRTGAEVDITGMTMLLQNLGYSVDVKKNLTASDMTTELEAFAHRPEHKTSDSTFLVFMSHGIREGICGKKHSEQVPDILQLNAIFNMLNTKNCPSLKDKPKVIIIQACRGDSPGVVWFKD
T1 sequence (P29466 317-404 limits assumed): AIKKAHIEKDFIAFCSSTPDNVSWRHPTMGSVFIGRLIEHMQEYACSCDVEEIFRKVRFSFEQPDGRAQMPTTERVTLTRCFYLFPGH
The experiment in a line: Caspase-1 activation in human RPE cells (Western blot p20, Caspalux substrate cleavage). In kind it is cell-based. To be noted: for Alu RNA-induced Caspase-1 substrate cleavage: Caspalux fluorescent substrate. The procedure: Protein abundance was assessed by Western blot analysis using antibodies against Caspase-1 (1:500; Invitrogen), pIRAK1 (1:500; Thermo Scientific), pIRAK4 (1:500, Abbomax), PYCARD (1:200, Santa Cruz Biotechnology), NLRP3 (1:500, Enzo Life Sciences) and Vinculin (1:1,000; Sigma-Aldrich). Caspase-1 activity was visualized using Caspalux1 E1D2 (Oncolmmunin) according to manufacturer's instructions.
Tissues or cells were homogenized in lysis buffer (10 mM Tris base, pH 7.4, 150 mM NaCl, 1 mM EDTA, 1 mM EGTA, 1% Triton X-100, 0.5% NP-40, protease and phosphatase inhibitor cocktail (Roche)). Protein concentrations were determined using a Bradford assay kit (Bio-Rad) with bovine serum albumin as a standard. Proteins (40-100 μg) were run on NuPAGE Bis-Tris gels (Invitrogen) and transferred to Immun-Blot PVDF membranes (Bio-Rad). Cells were scraped in hot Laemmli buffer (62.5 mM Tris base, pH 6.8, 2% SDS, 5% 2-Mercaptoethanol, 10% Glycerol, 0.01% Bromophenol Blue). Samples were boiled and run on 4-20% NuPAGE Tris-Glycine gels (Invitrogen). The transferred membranes were blocked for 1 h at RT and incubated with antibodies against human Caspase-1 (1:500; Invitrogen), mouse Caspase 1 (1:500; MBL), NLRP3 (1:1000; Enzo Life Sciences), PYCARD (1:1000, RayBiotech), phospho-IRAK1 (S376) (1:500, Thermo Scientific), phospho-IRAK4 (T345) (1:500, AbboMax), DICER1 (1:2,000; Bethyl), MyD88 (1:1,000; Cell Signaling), and mouse IL-18 (1:200; MBL) at 4° C. overnight. Protein loading was assessed by immunoblotting using an anti-Vinculin antibody (1:1,000; Sigma-Aldrich). The secondary antibodies were used (1:5,000) for 1 h at RT. The signal was visualized by enhanced chemiluminescence (ECL plus) and captured by VisionWorksLS Image Acquisition and Analysis software (Version 6.7.2, UVP, LLC).
Caspase-1 activity. Caspase-1 activity was visualized by incubating cells with Caspalux1E1D2 reagent (Oncolmmunin) according to the manufacturer's instructions. Caspalux1E1D2 signal was quantified reading the fluorescence (excitation 552 nm, emission 580 nm) using a Synergy 4 reader (Biotek). Quantification of fluorescence from images was performed by converting images into grayscale in Adobe Photoshop CSS, and measuring the integrated density of black and white images using ImageJ software (NIH) (Bogdanovich et al., 2008).

Test [1] relates to human RPE cells. In words: Loss of human RPE cell viability induced by DICER1 antisense. In kind it is cell-based.
Test [2] deals with human RPE cells. The conditions noted are these: human RPE cells transfected with pAlu. The procedure: All cell cultures were maintained at 37° C. and 5% CO2. Primary mouse RPE cells were isolated as previously described (Yang et al., 2009) and grown in Dulbecco Modified Eagle Medium (DMEM) supplemented with 20% FBS and standard antibiotics concentrations. Primary human RPE cells were isolated as previously described (Yang et al., 2008) and maintained in DMEM supplemented with 10% FBS and antibiotics. HeLa cells were maintained in DMEM supplemented with 20% FBS and standard antibiotics concentrations. THP-1 cells were cultured in RPMI 1640 medium supplemented with 10% FBS and antibiotics.
MTS assays were performed using the CellTiter 96 AQueous One Solution Cell Proliferation Assay (Promega) according to the manufacturer's instructions. For examining the cytoprotective effect of glycine in Alu RNA induced cell death, human RPE cells were transfected with pNull/pAlu. At 6 h post-transfection the cells were incubated with complete media containing glycine (5 mM) or vehicle, and cell viability was assessed after 24 h. Similarly, human RPE cells primed with LPS (5 μg/ml for 6 h) were treated with ATP (25 μM) in the presence of glycine containing media (5 mM). 30 min post ATP cell viability was assessed as described above.
MTS assays were performed using the CellTiter 96 AQueous One Solution Cell Proliferation Assay (Promega) according to the manufacturer's instructions.

Like-named read-outs stand apart in the source and are kept apart here.

Regarding Z-WEHD-FMK, the results for the “pAlu-induced IL-18 maturation” value with IL-18 and in the test on IL-18 (listed as Caspase-1 peptide inhibitor) were “blocked IL-18 maturation” and “impaired”, respectively. The “AAV1-BEST1-Cre-induced RPE degeneration” value with RPE is “blocked”. For the same substance, the figures for the “Alu RNA-induced Caspase-1 substrate cleavage” value with Caspase-1 (listed as Caspase-1-inhibitory peptide) and in the test with Caspase-1 (listed as Caspase-1 inhibitor peptide) were “blocked Alu RNA-induced substrate cleavage” and “blocks”, respectively.
On to “DRQIKIWFQNRRMKWKKRDVLPGT [MyD88 inhibitory peptide]”, for which the “loss of human RPE cell viability induced by DICER1 antisense (AS)” value in the test with human RPE cells [1] is “rescues”. For the same substance, the figures for the “pAlu-induced human RPE cell death / loss of cell viability” value in the test on human RPE cells [2] (listed as MyD88-inhibitory peptide) and in the test on human RPE cells [2] (listed as MyD88i) were “inhibited cell death” and “rescued”, respectively. Further, the “AAV1-BEST1-Cre-induced RPE degeneration” value in the test with RPE is reported as “blocked”. Moreover, in the test with Caspase-1, the “Alu RNA-induced Caspase-1 substrate cleavage” value is listed as “does not reduce”. The “Alu RNA-induced Caspase-1 activation (p20 subunit)” value in the test with Caspase-1 (Western blot) is on record as “unaffected”.

Source of the values: patent US9453226B2, “Protection of cells from Alu-RNA-induced degeneration and inhibitors for protecting cells” (UNIVERSITY OF KENTUCKY RESEARCH FOUNDATION, priority 2011, dated 2016).
